In data set [1] the target is T1, dopamine transporters (DAT) (Rattus norvegicus, UniProt P23977). The data set can be described thus: [3H]dopamine uptake inhibition in rat brain synaptosomes. The class given is biochemical. The settings on record: 5 nM [3H]dopamine, mean ± SD, n = 3, inactive = no inhibition at 10,000 nM; for IC50: [3H]DA uptake via DAT IC50, rat brain synaptosomes.
For data set [2], the target named is T2, norepinephrine transporters (NET) (Rattus norvegicus, UniProt Q63380). The data set can be described thus: [3H]norepinephrine uptake inhibition in rat brain synaptosomes. In kind it is biochemical.
T2 sequence (Q63380 1-617): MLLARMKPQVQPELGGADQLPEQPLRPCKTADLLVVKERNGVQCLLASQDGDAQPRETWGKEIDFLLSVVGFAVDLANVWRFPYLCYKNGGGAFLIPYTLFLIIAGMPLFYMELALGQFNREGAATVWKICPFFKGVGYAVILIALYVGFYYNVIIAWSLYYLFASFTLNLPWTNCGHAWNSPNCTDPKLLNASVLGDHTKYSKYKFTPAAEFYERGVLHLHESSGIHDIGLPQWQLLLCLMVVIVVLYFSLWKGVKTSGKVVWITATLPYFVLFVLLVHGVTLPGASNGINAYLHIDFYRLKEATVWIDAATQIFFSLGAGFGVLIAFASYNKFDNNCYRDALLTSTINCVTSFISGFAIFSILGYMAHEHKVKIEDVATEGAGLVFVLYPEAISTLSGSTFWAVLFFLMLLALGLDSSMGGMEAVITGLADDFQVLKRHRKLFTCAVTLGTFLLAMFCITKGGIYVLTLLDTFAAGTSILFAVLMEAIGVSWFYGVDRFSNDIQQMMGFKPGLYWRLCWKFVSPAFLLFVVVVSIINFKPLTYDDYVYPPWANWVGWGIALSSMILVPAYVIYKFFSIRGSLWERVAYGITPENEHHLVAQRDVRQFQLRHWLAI
The target of data set [3] is serotonin transporters (SERT) (Rattus norvegicus, UniProt P31652). The data set can be described thus: [3H]serotonin uptake inhibition in rat brain synaptosomes. The class given is biochemical.
Sequence of serotonin transporters (SERT) (P31652 whole entry): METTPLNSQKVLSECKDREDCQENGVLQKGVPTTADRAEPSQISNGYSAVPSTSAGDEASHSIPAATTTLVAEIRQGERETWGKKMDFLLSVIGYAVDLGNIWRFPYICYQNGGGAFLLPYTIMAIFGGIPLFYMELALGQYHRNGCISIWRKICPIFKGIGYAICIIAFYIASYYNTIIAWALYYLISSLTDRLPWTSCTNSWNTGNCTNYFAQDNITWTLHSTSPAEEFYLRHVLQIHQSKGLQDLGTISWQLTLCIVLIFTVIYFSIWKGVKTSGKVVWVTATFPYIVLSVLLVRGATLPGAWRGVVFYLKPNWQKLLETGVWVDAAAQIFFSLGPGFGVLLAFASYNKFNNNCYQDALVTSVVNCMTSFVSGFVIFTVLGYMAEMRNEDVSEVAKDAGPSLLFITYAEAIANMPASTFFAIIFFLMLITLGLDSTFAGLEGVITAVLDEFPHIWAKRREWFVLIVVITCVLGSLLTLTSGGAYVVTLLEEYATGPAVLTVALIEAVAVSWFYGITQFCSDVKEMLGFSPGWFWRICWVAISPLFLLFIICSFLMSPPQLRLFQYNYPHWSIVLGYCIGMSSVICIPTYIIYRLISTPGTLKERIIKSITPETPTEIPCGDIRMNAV
Data set [4] deals with T1, dopamine transporters (DAT). The data set can be described thus: [3H]MPP+ release via DAT from rat brain synaptosomes. In kind it is biochemical. The settings on record: for [3H]MPP+ release via DAT EC50: rat brain synaptosomes, 9 nM [3H]MPP+, mean ± SD, n = 3, inactive = efficacy less than 33% of maximal release.
Data set [5] concerns the target T2, norepinephrine transporters (NET). The data set can be described thus: [3H]MPP+ release via NET from rat brain synaptosomes. In kind it is biochemical. The settings on record: for [3H]MPP+ release via NET EC50: rat brain synaptosomes, 9 nM [3H]MPP+, mean ± SD, n = 3, inactive = efficacy less than 33% of maximal release.
Data set [6] deals with 5-HT transporters (SERT) (Rattus norvegicus, UniProt P31652). The experiment in a line: [3H]5-HT release via SERT from rat brain synaptosomes. In kind it is biochemical.
Sequence of 5-HT transporters (SERT) (P31652 whole entry): as above
Data set [7] can be described thus: Stability of N-methoxymephedrone. In kind it is physicochemical. The settings on record: solid; over time converts from a colourless solid to a brown solid; hygroscopic.
The mark [8] stands for this setting: [3H]5-HT release via SERT EC50, rat brain synaptosomes, 5 nM [3H]5-HT, mean ± SD, n = 3, inactive = efficacy less than 33% of maximal release.
The mark [9] stands for this setting: ratio of uptake IC50 values versus mexedrone.

This is an account of results in paper PMC5336524 (Drug testing and analysis, 2016).

By IC50 is commonly meant the concentration that inhibits the measured activity by half. Low values mean inhibition by little substance, high ones a need for much substance. As usually defined, the EC50 is the concentration at which the effect is half-maximal. Read a low EC50 as greater potency.

Like-named read-outs stand apart in the source and are kept apart here.

T1 sequence (P23977 whole entry): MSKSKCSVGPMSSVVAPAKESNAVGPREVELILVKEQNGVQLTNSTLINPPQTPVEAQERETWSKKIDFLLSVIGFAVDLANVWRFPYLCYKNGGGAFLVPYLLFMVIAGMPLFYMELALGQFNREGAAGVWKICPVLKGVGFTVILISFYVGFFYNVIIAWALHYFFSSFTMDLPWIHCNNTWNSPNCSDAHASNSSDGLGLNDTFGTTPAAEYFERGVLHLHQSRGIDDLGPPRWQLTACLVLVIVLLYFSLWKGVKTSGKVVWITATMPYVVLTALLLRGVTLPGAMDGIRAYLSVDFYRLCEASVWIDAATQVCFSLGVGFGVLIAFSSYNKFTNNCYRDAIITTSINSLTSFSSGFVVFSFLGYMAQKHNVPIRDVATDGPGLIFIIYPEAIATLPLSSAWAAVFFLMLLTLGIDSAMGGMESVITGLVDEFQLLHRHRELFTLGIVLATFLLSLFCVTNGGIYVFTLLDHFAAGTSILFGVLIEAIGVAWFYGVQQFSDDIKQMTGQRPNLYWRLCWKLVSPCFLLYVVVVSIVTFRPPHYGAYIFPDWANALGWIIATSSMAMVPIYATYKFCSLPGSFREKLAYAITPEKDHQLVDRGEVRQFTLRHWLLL

In the case of `CNC(C)C(=O)c1ccc(C)cc1` (stereo not shown) [Mephedrone, 2-(methylamino)-1-(4-methylphenyl)propan-1-one, reference compound], the IC50 in data set [1] stood at 1.06 ± 0.085 µM; in data set [2] it was 0.494 ± 0.093 µM; in data set [3] it was 0.47 ± 0.0076 µM. The EC50 in data set [4] came out at 45 ± 6 nM; in data set [5], 58 ± 7 nM; in data set [6] (setting [8]), 163 ± 30 nM.

For the molecule `CNC(COC)C(=O)c1ccc(C)cc1` (stereo not shown) [Mexedrone, 3-Methoxy-2-(methylamino)-1-(4-methylphenyl)propan-1-one], the IC50 in data set [1] stood at 6.84 ± 1.52 µM; in data set [2], 8.87 ± 3.1 µM; in data set [3] it was 5.29 ± 1.62 µM. Moreover, the “[3H]MPP+ release via DAT EC50” value in data set [4] is “inactive”. Besides, the “[3H]MPP+ release via NET EC50” value in data set [5] was “inactive”. Also, the EC50 in data set [6] (setting [8]) is 2520 ± 560 nM; in data set [6] (releasing activity at SERT EC50, rat brain synaptosomes) it was 2500 nM.

Regarding `CON(C)C(C)C(=O)c1ccc(C)cc1` (stereo not shown) [N-Methoxymephedrone, 2-(Methoxy(methyl)amino)-1-(4-methylphenyl)propan-1-one], the half-inhibitory concentration (IC50) in data set [1] was 6.09 ± 1.62 µM; in data set [2], 3.46 ± 0.728 µM; in data set [3], 3.33 ± 1.13 µM. Moreover, in data set [2] (setting [9]), the “fold more potent than mexedrone at NET (uptake inhibition)” value came to 2.6 fold. The “fold more potent than mexedrone at SERT (uptake inhibition)” value in data set [3] (setting [9]) was 1.6 fold. For the same molecule, the EC50 in data set [4] is 666 ± 132 nM; in data set [5], 313 ± 51 nM; in data set [6], 1040 ± 271 nM. In addition, the “stability in crystalline form” value in data set [7] was “unstable”.

In the case of `CNC(CCl)C(=O)c1ccc(C)cc1` (stereo not drawn) [α-Chloromethylmephedrone, 3-chloro-2-(methylamino)-1-(4-methylphenyl)propan-1-one], the “[3H]DA uptake via DAT IC50” value in data set [1] (rat brain synaptosomes) is “inactive”. In addition, in data set [2] (rat brain synaptosomes, 10 nM [3H]norepinephrine, mean ± SD, n = 3, inactive = no inhibition at 10,000 nM), the “[3H]NE uptake via NET IC50” value was “inactive”. Further, in data set [3] (rat brain synaptosomes, 5 nM [3H]serotonin, mean ± SD, n = 3, inactive = no inhibition at 10,000 nM), the “[3H]5-HT uptake via SERT IC50” value is “inactive”. Further, the “[3H]MPP+ release via DAT EC50” value in data set [4] was “inactive”. Further, the “[3H]MPP+ release via NET EC50” value in data set [5] was “inactive”. The “[3H]5-HT release via SERT EC50” value in data set [6] (rat brain synaptosomes, 5 nM [3H]5-HT, mean ± SD, n = 3, inactive = efficacy less than 33% of maximal release) was “inactive”.
